# Data reported in ChEMBL document CHEMBL1201862, “PubChem BioAssay data set” (2004).
#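 Growth conditions: 96-well plates. Treatment: test compound, 48 hours, 5 concentrations. Analysis: linear interpolation between bracketing concentrations; unreached endpoints set to highest concentration. GI50 = concentration required for 50% inhibition of growth.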 Activity calls are given as the source filed them. No stated cut-off is given here; in the data, active = GI50 up to about 1.1 µM and inactive = higher.
# Key:
# Experiment in all cases: NCI tumour cell line growth inhibition, 48 h
# 786-0 = system: 786-0
# A549 = system: A549
# DLD-1 = system: DLD-1
# HCT-15 = system: HCT-15
# HOP-62 = system: HOP-62
# Hs-578T = system: Hs-578T
# KM12 = system: KM12
# MCF7 = system: MCF7
# MDA-MB-231 = system: MDA-MB-231
# NCI-H460 = system: NCI-H460
# PC-3 = system: PC-3
# RPMI-8226 = system: RPMI-8226
# RXF 393 = system: RXF 393
# SF-295 = system: SF-295
# SF-539 = system: SF-539
# SK-MEL-5 = system: SK-MEL-5
# SK-OV-3 = system: SK-OV-3
# SR = system: SR
# T47D = system: T47D
# UACC-62 = system: UACC-62
Compound,GI50 (786-0),GI50 (A549),GI50 (DLD-1),GI50 (HCT-15),GI50 (HOP-62),GI50 (Hs-578T),GI50 (KM12),GI50 (MCF7),GI50 (MDA-MB-231),GI50 (NCI-H460),GI50 (PC-3),GI50 (RPMI-8226),GI50 (RXF 393),GI50 (SF-295),GI50 (SF-539),GI50 (SK-MEL-5),GI50 (SK-OV-3),GI50 (SR),GI50 (T47D),GI50 (UACC-62)
CC(C)(C)N1CC1CNC(=O)C(=O)NCC1CN1C(C)(C)C (centres undefined),1.4 µM (inactive),3.93 µM (inactive),0.556 µM (active),3.74 µM,1.31 µM (inactive),91 µM (inactive),4.74 µM (inactive),9.31 µM (inactive),63.4 µM (inactive),1.53 µM (inactive),14.9 µM (inactive),5.86 µM (inactive),1.67 µM (inactive),3.33 µM (inactive),2.94 µM (inactive),16.7 µM (inactive),3.69 µM (inactive),0.601 µM (active),22.2 µM (inactive),2.18 µM (inactive)
COc1cc([C@@H]2c3cc4c(c(O)c3C[C@H]3COC(=O)[C@@H]32)OCO4)cc(OC)c1OC [BETA-PELTATIN A],0.0241 µM (active),0.015 µM (active),0.015 µM (active),0.015 µM,0.323 µM (active),0.0241 µM (active),0.015 µM (active),0.015 µM (active),0.00596 µM (active),0.0254 µM (active),0.0241 µM (active),0.015 µM (active),–,0.0238 µM (active),–,–,–,109 µM (inactive),51.9 µM (inactive),–
O=c1c2ccccc2sc2nc(CCl)nn12,12.4 µM (inactive),31 µM (inactive),6.81 µM (inactive),4.6 µM,> 100 µM (inactive),2.17 µM (inactive),> 100 µM (inactive),3.65 µM (inactive),8.36 µM (inactive),5.64 µM (inactive),3.42 µM (inactive),> 97.5 µM (inactive),6.75 µM (inactive),43.1 µM (inactive),32.4 µM (inactive),> 100 µM (inactive),14.8 µM (inactive),10.9 µM (inactive),4.76 µM (inactive),5.46 µM (inactive)
CCCCCCCCCCCCCCCCCC(=O)Nc1ccn(C2OC(CO)C(O)C2O)c(=O)n1 (centres undefined),> 40.8 µM (inactive),2.99 µM (inactive),> 100 µM (inactive),33 µM,2.8 µM (inactive),> 100 µM (inactive),> 65.9 µM (inactive),2.06 µM (inactive),> 100 µM (inactive),2.69 µM (inactive),4.92 µM (inactive),31.6 µM (inactive),26.8 µM (inactive),> 85.1 µM (inactive),> 76.6 µM (inactive),47.9 µM (inactive),35.1 µM (inactive),2.14 µM (inactive),> 100 µM (inactive),40.3 µM (inactive)
COc1cccc2c1C(=O)c1c(O)c3c(c(O)c1C2=O)C[C@@](O)(C(C)=O)C[C@@H]3OC1CC(N(C)C)C(O)C(C)O1 (some centres undefined),0.0562 µM (active),0.00617 µM (active),0.0153 µM (active),0.00389 µM,0.00344 µM (active),0.000123 µM (active),0.00485 µM (active),0.01 µM (active),0.00132 µM (active),0.00383 µM (active),0.000206 µM (active),0.0113 µM (active),0.00681 µM (active),0.00425 µM (active),0.00417 µM (active),0.00236 µM (active),0.00593 µM (active),0.00135 µM (active),0.000196 µM (active),0.00427 µM (active)
Nc1ccc2c(c1)CN1C(=O)c3ccccc3C1=N2 [DANIQUIDONE],28.4 µM (inactive),31 µM (inactive),51.1 µM (inactive),34.8 µM,9.71 µM (inactive),21.3 µM (inactive),50.7 µM (inactive),39.5 µM (inactive),31.6 µM (inactive),15.5 µM (inactive),58.1 µM (inactive),74.6 µM (inactive),34.4 µM (inactive),12.9 µM (inactive),10.3 µM (inactive),16.8 µM (inactive),–,18.7 µM (inactive),52.5 µM (inactive),32.6 µM (inactive)
